How the values were obtained:
Assay in all cases: relative viability (nuclei count vs DMSO), 5 days (fraction); higher = more cells survive
AZD8055 + Palbociclib = compound: COc1ccc(-c2ccc3c(N4CCOC[C@@H]4C)nc(N4CCOC[C@@H]4C)nc3n2)cc1CO [AZD8055] + CC(=O)c1c(C)c2cnc(Nc3ccc(N4CCNCC4)cn3)nc2n(C2CCCC2)c1=O [Palbociclib] (partner 0.5 µM)
How it was run: (§1)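 Dosing by pin tool came one day after lung cancer cell lines were seeded in 1536-well plates, using either one drug or a fixed anchor-drug dose plus five library-drug doses (not always all listed) in √10 steps. After 5 days, nuclei were counted on 4× images. Relative viability is treated-well nuclei count divided by vehicle-well nuclei count, and values are medians of duplicate plates.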

AZD8055 + Dasatinib = compound: COc1ccc(-c2ccc3c(N4CCOC[C@@H]4C)nc(N4CCOC[C@@H]4C)nc3n2)cc1CO [AZD8055] + Cc1nc(Nc2ncc(C(=O)Nc3c(C)cccc3Cl)s2)cc(N2CCN(CCO)CC2)n1 [Dasatinib] (partner 0.075 µM)
How it was run: as §1

AZD8055 + Luminespib = compound: COc1ccc(-c2ccc3c(N4CCOC[C@@H]4C)nc(N4CCOC[C@@H]4C)nc3n2)cc1CO [AZD8055] + CCNC(=O)c1noc(-c2cc(C(C)C)c(O)cc2O)c1-c1ccc(CN2CCOCC2)cc1 [Luminespib] (partner 0.01 µM)
How it was run: as §1

AZD8055 + Bortezomib = compound: COc1ccc(-c2ccc3c(N4CCOC[C@@H]4C)nc(N4CCOC[C@@H]4C)nc3n2)cc1CO [AZD8055] + CC(C)C[C@H](NC(=O)[C@H](Cc1ccccc1)NC(=O)c1cnccn1)B(O)O [Bortezomib] (partner 0.002 µM)
How it was run: as §1

| Cell Line | relative viability (AZD8055 + Palbociclib; first compound 0.01 µM) | relative viability (AZD8055 + Palbociclib; first compound 0.03162 µM) | relative viability (AZD8055 + Palbociclib; first compound 0.1 µM) | relative viability (AZD8055 + Palbociclib; first compound 0.3162 µM) | relative viability (AZD8055 + Palbociclib; first compound 1 µM) | relative viability (AZD8055 + Dasatinib; first compound 0.01 µM) | relative viability (AZD8055 + Dasatinib; first compound 0.03162 µM) | relative viability (AZD8055 + Dasatinib; first compound 0.1 µM) | relative viability (AZD8055 + Dasatinib; first compound 0.3162 µM) | relative viability (AZD8055 + Dasatinib; first compound 1 µM) | relative viability (AZD8055 + Luminespib; first compound 0.01 µM) | relative viability (AZD8055 + Luminespib; first compound 0.03162 µM) | relative viability (AZD8055 + Luminespib; first compound 0.1 µM) | relative viability (AZD8055 + Luminespib; first compound 0.3162 µM) | relative viability (AZD8055 + Luminespib; first compound 1 µM) | relative viability (AZD8055 + Bortezomib; first compound 0.01 µM) | relative viability (AZD8055 + Bortezomib; first compound 0.03162 µM) | relative viability (AZD8055 + Bortezomib; first compound 0.1 µM) | relative viability (AZD8055 + Bortezomib; first compound 0.3162 µM) | relative viability (AZD8055 + Bortezomib; first compound 1 µM) |
| --- | --- | --- | --- | --- | --- | --- | --- | --- | --- | --- | --- | --- | --- | --- | --- | --- | --- | --- | --- | --- |
| COR-L 105 | 0.426 | 0.388 | 0.374 | 0.403 | 0.381 | 0.359 | 0.281 | 0.23 | 0.2 | 0.226 | 0.733 | 0.912 | 0.349 | 0.3 | 0.268 | 0.997 | 0.879 | 0.565 | 0.309 | 0.373 |
| LK-2 | 0.387 | 0.399 | 0.347 | 0.17 | 0.102 | 0.215 | 0.188 | 0.175 | 0.185 | 0.185 | 0.154 | 0.186 | 0.16 | 0.173 | 0.144 |  |  |  |  |  |
| NCI-H727 | 0.621 | 0.635 | 0.572 | 0.573 | 0.51 | 0.444 | 0.464 | 0.41 | 0.28 | 0.312 | 0.375 | 0.34 | 0.345 | 0.345 | 0.376 | 0.976 | 0.824 | 0.698 | 0.388 | 0.275 |
| RERF-LC-KJ | 1.11 | 1.09 | 0.779 | 0.441 | 0.412 | 0.946 | 0.753 | 0.607 | 0.284 | 0.343 | 1.19 | 1.14 | 0.853 | 0.475 | 0.473 | 1.18 | 0.921 | 0.748 | 0.528 | 0.569 |
| NCI-H2023 | 0.264 | 0.229 | 0.0912 | 0.086 | 0.113 | 0.568 | 0.358 | 0.166 | 0.0954 | 0.103 | 0.591 | 0.411 | 0.138 | 0.1 | 0.128 | 0.837 | 0.664 | 0.356 | 0.136 | 0.137 |
| NCI-H322M | 0.457 | 0.492 | 0.383 | 0.468 | 0.41 | 0.259 | 0.265 | 0.251 | 0.246 | 0.249 | 0.797 | 0.597 | 0.357 | 0.348 | 0.289 | 1.24 | 1.34 | 1.17 | 0.894 | 1.11 |
| NCI-H1666 | 0.669 | 0.643 | 0.624 | 0.652 | 0.674 | 0.928 | 0.853 | 0.739 | 0.698 | 0.579 | 1.06 | 1.03 | 0.977 | 0.772 | 0.693 | 0.932 | 0.65 | 0.62 | 0.483 | 0.469 |
| NCI-H1648 | 0.251 | 0.332 | 0.201 | 0.235 | 0.241 |  |  |  |  |  |  |  |  |  |  |  |  |  |  |  |
| NCI-H2087 | 0.212 | 0.198 | 0.159 | 0.113 | 0.141 | 0.957 | 0.637 | 0.792 | 0.292 | 0.216 | 0.171 | 0.163 | 0.138 | 0.124 | 0.141 | 0.783 | 0.992 | 0.796 | 0.441 | 0.252 |
| LU99A | 0.312 | 0.285 | 0.167 | 0.198 | 0.2 | 0.432 | 0.324 | 0.314 | 0.173 | 0.268 | 0.234 | 0.189 | 0.185 | 0.191 | 0.188 | 0.936 | 0.549 | 0.374 | 0.235 | 0.209 |
| HCC-366 | 0.311 | 0.199 | 0.0939 | 0.0508 | 0.0399 | 0.719 | 0.401 | 0.241 | 0.0939 | 0.0948 |  |  |  |  |  | 1.31 | 0.863 | 0.98 | 0.337 | 0.123 |
| EKVX | 0.466 | 0.365 | 0.278 | 0.211 | 0.173 | 0.443 | 0.615 | 0.419 | 0.317 | 0.263 | 0.949 | 0.866 | 0.655 | 0.355 | 0.248 | 0.942 | 1 | 0.832 | 0.499 | 0.356 |
| NCI-H522 | 1.06 | 0.923 | 0.717 | 0.536 | 0.414 | 0.864 | 0.831 | 0.907 | 0.625 | 0.535 | 1.19 | 0.994 | 0.744 | 0.581 | 0.553 |  |  |  |  |  |
| NCI-H1755 | 0.42 | 0.44 | 0.388 | 0.368 | 0.359 | 0.414 | 0.32 | 0.262 | 0.263 | 0.249 | 0.43 | 0.417 | 0.361 | 0.263 | 0.251 | 0.98 | 0.879 | 0.75 | 0.459 | 0.359 |
| NCI-H647 | 0.348 | 0.219 | 0.245 | 0.102 | 0.0993 | 0.179 | 0.136 | 0.132 | 0.0579 | 0.144 | 0.15 | 0.126 | 0.125 | 0.0957 | 0.121 | 1.71 | 0.748 | 0.541 | 0.266 | 0.17 |
| LC-2-ad | 0.534 | 0.471 | 0.438 | 0.388 | 0.312 | 0.559 | 0.683 | 0.451 | 0.221 | 0.321 | 1.25 | 0.969 | 1.03 | 0.537 | 0.548 | 1.08 | 1.01 | 1.08 | 0.777 | 0.537 |
| NCI-H1793 | 0.216 | 0.218 | 0.163 | 0.22 | 0.211 | 0.356 | 0.178 | 0.192 | 0.148 | 0.11 | 0.151 | 0.156 | 0.146 | 0.132 | 0.149 |  |  |  |  |  |

From the supplement of paper PMC10307832
